For test [1], the system named is Phytophthora infestans. Briefly: whole plant or invertebrate. Format: in vivo. The following applies: in Solanum lycopersicum, 144 h, read-out: percent disease control, TLB.
For test [2], the system named is Pythium ultimum. Description: Fungitoxicity against Pythium ultimum (inhibition of mycelial growth in liquid broth). Format: cell-based. The note with it: Globisporangium ultimum, 48 hours at 25° C. with shaking, asparagine-sucrose broth, read-out: % Inhibition of growth (increase in mycelial dry weight) as compared to controls. Here is the method:
Compounds were tested for fungitoxicity against Pythium ultimum according to the procedures set forth below.
Test compounds were dissolved in dimethylsulfoxide at 20 mg/ml and 0.1 ml was added to 19.9 ml of a liquid asparagine-sucrose broth, prepared according to the method described in Erwin, D. C., and Katznelson, K., Canadian Journal of Microbiology 7, 15 (1971), in 9 cm petri dishes to give a concentration of 100 ppm of the compound. Each plate was inoculated with a mycelial plug, 7 mm in diameter, taken from the growing edge of a culture of Pythium ultimum grown on potato dextrose agar. Two replicate plates were used for each treatment. After growth for 48 hours at 25° C. with shaking on a gyrotary shaker at 60 rpm, the increase in mycelial dry weight was determined. Fungitoxicity was recorded as percent inhibition of growth as compared to controls lacking the test compounds.

Test [3] deals with Plasmopara viticola. In kind it is in vivo. The following applies: 7-8 days at 20° C.
In test [4] the test system is Pseudoperonospora cubensis. The note with it: in vivo.

A word on the inhibition: it is the change of the read-out against control, counted positive when it falls.

SMILES strings stand for the structures.

Turning to `CCC(C)(NC(=O)c1ccc2ncoc2c1)C(=O)CCl` (stereo not shown) [Compound 1], in test [1], the pest or weed control at 375 ppm amounted to 100%. For the same compound, in test [2], the inhibition at 100 ppm turned out to be 89.4%.

Consider `CCC(C)(NC(=O)c1cc(Cl)c2ncoc2c1)C(=O)CCl` (stereo not shown) [Compound 3], for which the pest or weed control at 300 ppm in test [1] worked out at 100%. Moreover, in test [3], the “percent disease control, GDM” value worked out at 100%. Also, the inhibition at 100 ppm in test [2] was 92%.

Take `CCC(C)(NC(=O)c1ccc2ncsc2c1)C(=O)CCl` (stereo not shown) [Compound 4]: the “percent disease control, CDM” value in test [4] was 50%. Also, in test [1], the pest or weed control at 300 ppm is 100%. Besides, the inhibition at 100 ppm in test [2] turned out to be 94.2%.

For `CCC(C)(NC(=O)c1ccc2[nH]ccc2c1)C(=O)C(Cl)Cl` (stereo not shown) [Compound 5], the “percent disease control, CDM” value in test [4] is 50%. Besides, in test [1], the pest or weed control at 750 ppm stood at 0%. Besides, the inhibition at 100 ppm in test [2] was 66.9%.

Take `CCC(C)(NC(=O)c1ccc2[nH]ccc2c1)C(=O)CCl` (stereo not shown) [Compound 6]: in test [1], the pest or weed control at 300 ppm stood at 100%. Also, the “percent disease control, GDM” value in test [3] was 100%. Besides, the inhibition at 100 ppm in test [2] was determined as 88.6%.

`CCC(C)(NC(=O)c1ccc2c(c1)CCO2)C(=O)C(Cl)Cl` (stereo not shown) [Compound 7]: the inhibition at 100 ppm in test [2] is 94.5%.

As for `CCC(C)(NC(=O)c1ccc2ocnc2c1)C(=O)CCl` (stereo not shown) [Compound 8], in test [1], the pest or weed control at 300 ppm was found to be 90%. In addition, in test [3], the “percent disease control, GDM” value stood at 100%. The inhibition at 100 ppm in test [2] is 93.7%.

In the case of `CCC(C)(NC(=O)c1ccc2c(c1)CCO2)C(=O)CCl` (stereo not shown) [Compound 9], in test [1], the pest or weed control at 300 ppm worked out at 100%. The “percent disease control, GDM” value in test [3] worked out at 0%. In addition, in test [2], the inhibition at 100 ppm turned out to be 91.6%.

`CCC(C)(NC(=O)c1cc(Cl)c2nc(C)oc2c1)C(=O)CCl` (stereo not shown) [Compound 12]: the pest or weed control at 300 ppm in test [1] is 95%. Further, the “percent disease control, GDM” value in test [3] is on record as 90%. In addition, the inhibition at 100 ppm in test [2] stood at 90.7%.

As for `CCC(C)(NC(=O)c1ccc2nc(C)oc2c1)C(=O)C(Cl)Cl` (stereo not shown) [Compound 14], in test [2], the inhibition at 100 ppm was 94.5%.

Values taken from patent US5811427A (priority 1997, dated 1998).
